Test results published in patent US11857601B2, “Pharmaceutical composition for cancer treatment comprising fusion protein including IL-2 protein and CD80 protein and anticancer drug” (GI INNOVATION, INC., priority 2020, dated 2024).
Marks after values point to notes of the source that are not given here.

Tests used:
CT26 cells [1] = test: mGI-101 and Lenvatinib in CT26 allotransplanted tumor model; assay type: in vivo, BALB/c mice
Description: (§1) CT26 cells were purchased from ATCC (USA) and cultured in RPMI1640 medium (Gibco) containing 10% FBS (Gibco) and 1% antibiotic/antifungal agent (Gibco). The cultured cells were harvested using trypsin (Gibco) and then suspended in PBS. In order to establish an allotransplanted tumor model, 1×10^6 CT26 cells were subcutaneously injected into the right flank of BALB/c female mice (7-week-old).
A certain period of time after the cell transplantation, the tumor volume was measured for animals with no abnormalities in the health condition of the animals, and the mice were assigned so that the average tumor volume of each group was less than 70-100 mm^3, each group including 10 mice.
In the case of Lenvatinib powder, the dose was calculated and weighed, and it was prepared to the dose concentration using a 0.5% methyl cellulose excipient. In order to minimize the loss of the test substance, the doses for 3 or 4 days were weighed, and prepared using the excipient on the day of administration and injected.
(§2) Clinical symptoms such as a disease and a behavioral change were observed once a day during the test period, and deceased animals were identified, and the mice were sacrificed when the tumor size reached a size of 4,000 mm^3.
(§3) The tumor volume before administration of each subject was set as the value measured at the time of grouping.
(§4) All statistical calculations were performed using Prism 8.0 (Graph Pad Software Inc, USA). The comparison of tumor volume measurements was made through two-way analysis of variance followed by Tukey's multiple comparison test. A p value of less than 0.05 was considered significant.

Renca cells = test: mGI-101 and Lenvatinib in Renca allotransplanted tumor model; assay type: in vivo, BALB/c mice; settings: mGI-101 twice a week (BIW), Lenvatinib daily, 10 mice per group
Description: as §1, with “Renca” for “CT26”, “5×10^6 Renca” for “1×10^6 CT26”, “back” for “right flank”, “(8-week-old).” for “(7-week-old).”
A certain period of time after cell inoculation of the tumor grafts of the mice, the tumor volume was measured for animals with no abnormalities in the health condition of the animals, and the mice were randomly selected and assigned, each group including 10 mice.
The death of the mouse, the type of general symptoms, the date of onset, and the severity of symptoms were observed once a day during the test period, and recorded for each subject.
(§5) The tumor volume before administration of each subject was set as the value measured at the time of grouping, and the anti-tumor efficacy was evaluated as compared with the vehicle control.
as §4

[2] = tested on: CD8+ T cells and CD4+/FoxP3+ Treg cells; test: Proliferation of CD8+ T cells and Treg cells in PBMCs (Exp. Ex. 10); assay type: cell-based, human; settings: for proportion of CD8+ T cells: anti-CD3ε 1 μg/ml, 7 days, compared with no stimulus, anti-CD3 antibody alone and GI101C1; for proliferation of CD4+/FoxP3+ Treg cells: compared with no stimulus and anti-CD3 antibody alone
Description: Human PBMCs were purchased from Allcells (Lot #3014928, USA). […] CellTrace CFSE dye was used, which was reacted with the human PBMCs under a light-blocking condition at […] for 20 minutes. The cells were labeled with CFSE by being reacted with 1 μM CellTrace CFSE dye at 37° C. for 20 minutes. CFSE not bound to the cells was removed by being reacted for 5 minutes with a culture medium having a 5-fold volume of the staining reaction solution and then by being centrifuged at 1,300 rpm for 5 minutes. The CFSE-labeled PBMCs were resuspended in the culture medium (RPMI1640 medium containing 10% fetal bovine serum, 10 mM HEPES, 100 U/ml penicillin/streptomycin, 1 mM sodium pyruvate, 55 μM 2-mercaptoethanol, 1 mM non-essential amino acid, and 2 mM L-glutamine), and then added to a 96-well microplate at 1×10^5 cells per well.
The incubated cells were examined for their degree of proliferation by measuring, with FACS analysis using anti-human CD4-PE antibody (BioLegend, USA), anti-human CD8-PE/Cy7 antibody (BioLegend, USA), and anti-human FoxP3-APC antibody (BioLegend, USA), a proportion of CD8+ T cells that had not been labeled with CFSE.

LL/2 cell line = test: mGI-101 and Axitinib in LL/2 allotransplanted tumor model; assay type: in vivo, C57BL/6 mice; settings: mGI-101 3 mg/kg IP, Axitinib 30 mg/kg PO
Description: (§6) Mouse-derived colorectal cancer cells, CT26 (Mus musculus, Colon adenocarcinoma), and mouse-derived lung cancer cells, LL/2 (Mus musculus, Lung adenocarcinoma), were purchased from ATCC (USA) and used for the test. The cells to be used for the test were thawed, mixed with RPMI1640 (A1049101, Thermofisher scientific) medium containing 10% FBS (fetal bovine serum, Gibco, 10082-147), and then placed in a cell culture flask, and cultured in a 37° C., 5% CO2 incubator. The cells were washed with PBS, and then the cells were isolated using Trypsin-EDTA (15090, Gibco), and centrifugation (125×g, 5 minutes) was performed to discard the supernatant, and then the cells were suspended in a new medium to obtain the cell suspension. The viability of the cells was identified, and then a cell line was prepared by diluting in a medium to a concentration of 5.0×10^6 cells/mL.
(§7) 6-week-old male BALB/cAnHsd mice or C57BL/6NHsd mice were purchased and used for the test. After the end of the acclimation period of 7 days, the cells were transplanted into healthy animals. The cell suspension (5×10^6 cells/mL) was dispensed, and filled into a disposable syringe, and transplantation of the suspension was performed by subcutaneous administration at 0.1 mL/head in the right dorsal region of the animals. General symptoms were observed once a day during the engraftment and growth period after cell line transplantation.
(§8) After the inoculation of the cell line was performed, when the tumor size at the site to which the cell line was transplanted reached about 50 mm^3, the tumor size of each group was distributed as uniformly as possible according to the ranked tumor size.
(§9) The test substance was administered orally or intraperitoneally, and administered for 3 weeks depending on the composition of the test group. In the case of oral administration, the animals were fixed with the cervical spine skin fixation method, and administered directly into the stomach using a sonde for oral administration. In the case of intraperitoneal administration, the animals were fixed with the cervical spine skin fixation method, and administered intraperitoneally using a syringe equipped with a 26 gauge needle. The administration rate was not to exceed 200 μl/min.
Syngeneic model was prepared by subcutaneously transplanting the LL/2 cell line into C57BL/6 mice, and then the test substance was administered to evaluate the anticancer effect.

CT26 cells [3] = test: mGI-101 and Axitinib in CT26 allotransplanted tumor model; settings: mGI-101 3 mg/kg IP, Axitinib 30 mg/kg PO;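 further: subcutaneous CT26 syngeneic tumors in male BALB/c mice, dosing started once tumors were near 50 mm^3, drugs given orally or intraperitoneally for up to 3 weeks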
Description: as §6, §7, §8, §9
Syngeneic model was prepared by subcutaneously transplanting the CT26 cell line into Balb/c mice, and then the test substance was administered to evaluate the anticancer effect.

MDA-MB-231 cells = test: GI101 and Keytruda in humanized mice xenotransplanted with MDA-MB-231; assay type: in vivo, human
Description: Fetal bovine serum (FBS, 16000-044, Thermofisher scientific, USA), penicillin-streptomycin; 10,000 units/ml penicillin and 10,000 μg/ml streptomycin (15140122, Thermofisher scientific, USA); and RPMI1640 (A1049101, Thermofisher scientific, USA) per 100 ml were mixed and used.
The cells were suspended using Trypsin-EDTA (Cat. 25200-072, Thermofisher scientific, USA). The suspended cells were collected by centrifugation (125×g, 5 minutes) using a centrifuge, transferred to a new medium and a new flask, and passage cultured. The cultured cells were put to a centrifugation tube on the day of cell line transplantation and then collected. […] 8-week-old female NSGb2m (NOD.Cg-B2m^tm1UncPrkdc^scidIl2rg^tm1Wjl/SzJ) mice were purchased from Joongang Bio (Korea) and used for the test. The body weight was measured the next day after the end of the quarantine and acclimation period, and then the human-derived PBMC cell suspension (5×10^6 cells/0.2 ml) prepared for healthy animals was filled into a disposable syringe and administered to the caudal vein of the animals. General symptoms were observed once a day after cell transplantation.
A certain period of time after the cell transplantation, the tumor volume was measured for animals with no abnormalities in the health condition of the animals, and 32 subjects were selected so that the average of each group reached 40 to 80 mm^3. The selected animals were grouped into a total of 4 groups as evenly as possible based on tumor volume and body weight, each group including 8 animals.
General symptoms such as appearance, behavior, and excrement were observed once a day during the observation period, and deceased animals were identified. Body weight was measured on the day of cell line transplantation, twice a week, and on the day of animal sacrifice. The major axis (maximum length, L) and minor axis (perpendicular width, W) of the tumor were measured using a caliper (Digital caliper, mitutoyo, Japan) three times a week during the observation period, and the tumor volume (TV) was calculated by substituting them into the following equations.
as §3

EMT6 cells = test: mGI-101 and Paclitaxel in EMT6 allotransplanted tumor model; assay type: in vivo, BALB/c mice
Description: EMT6 cells were purchased from ATCC (USA) and cultured in Waymouth MB 751/1 medium (WELGENE) containing 10% FBS (Gibco) and 1% antibiotic/antifungal agent (Gibco). The cultured cells were harvested using trypsin (Gibco), and then a high-concentration cell suspension (2×10^6 cells/0.4 mL) for 10 mice was prepare with PBS and stored on ice until injected into mice. In order to establish an allotransplanted tumor model, the skin was incised slightly away from the 4th nipple position from the upper right of the ventral region of BALB/c female mice (7-week-old), and the location of mammary fat pad at the incised site was identified, and then EMT6 cell line prepared inside the mammary fat pad was injected at 2×10^5 cells/40 uL/head.
A certain period of time after cell inoculation of the tumor grafts of the mice, the tumor volume was measured for animals with no abnormalities in the health condition of the animals, and the subjects were selected so that the average of each group reached less than 70-100 mm^3, and the selected animals were assigned as evenly as possible based on tumor volume and body weight, each group including 10 animals. As shown in Table 24 and FIG. 106, the test groups were configured and the test substances were administered.
as §2, §5, §4

[4] = tested on: CT26 (mouse colon carcinoma) cells; test: mGI-101 and Galunisertib in CT26 allotransplanted tumor model; assay type: in vivo, BALB/cAnHsd mice; settings: mean ± SD, mGI-101 3 mg/kg IP, Galunisertib 75 mg/kg PO
Description: 6-week-old male BALB/cAnHsd mice were purchased and used for the test.
The tumor size was measured three times a week for 3 weeks from the day of start of administration of the test substance. The major axis and minor axis of the tumor were measured using a caliper, and the tumor size (tumor volume, TV) was calculated using the following equations. TV (mm^3)=(W^2×L)/2 [Equation 1]

[5] = end of the experiment, 10 mice per group
[6] = day 42 vs day 21 after tumor transplantation, 8 animals per group

Compound: COc1cc2nccc(Oc3ccc(NC(=O)NC4CC4)c(Cl)c3)c2cc1C(N)=O [Lenvatinib]
- number of mice with tumor growth inhibition rate of 30% or more (CT26 cells [1]; [5]): 6 mice
- number of mice with tumor growth inhibition rate of 50% or more (CT26 cells [1]; [5]): 4 mice
- number of mice with tumor growth inhibition rate of 80% or more (CT26 cells [1]; [5]): 1 mice
- anticancer effect (tumor size) compared with the control (CT26 cells [1]; mGI-101 3 mg/kg i.v. QW, Lenvatinib 3 mg/kg p.o. daily, Lenvatinib day 18, 21, combination day 16, 18, 21): statistically significant anticancer effect
- number of mice with tumor growth inhibition rate of 30% or more (Renca cells): 4 mice
- number of mice with tumor growth inhibition rate of 50% or more (Renca cells): 2 mice
- number of mice with tumor growth inhibition rate of 80% or more (Renca cells): no mouse

Compound: Proleukin: Proleukin (Novartis, hIL-2); human recombinant IL-2 [reference compound]
- proportion of CD8+ T cells [2]: significant increase
- proliferation of CD4+/FoxP3+ Treg cells [2]: significant increase

Compound: CNC(=O)c1ccccc1Sc1ccc2c(/C=C/c3ccccn3)n[nH]c2c1 [Axitinib, reference compound]
- Tumor size (LL/2 cell line; Day 0, mean ± SD): 55.77 ± 11.25 mm^3
- Tumor size (LL/2 cell line; Day 2, mean ± SD): 88.73 ± 21.26 mm^3
- Tumor size (LL/2 cell line; Day 5, mean ± SD): 179.31 ± 52.62 mm^3
- Tumor size (LL/2 cell line; Day 7, mean ± SD): 362.30 ± 97.92 mm^3
- Tumor size (LL/2 cell line; Day 9, mean ± SD): 584.17 ± 172.94 mm^3
- Tumor size (LL/2 cell line; Day 12, mean ± SD): 892.90 ± 256.88 mm^3
- Tumor size (LL/2 cell line; Day 14, mean ± SD): 1292.27 ± 385.43 mm^3
- Tumor size (LL/2 cell line; Day 16, mean ± SD): 1775.26 ± 462.50 (9) mm^3
- Tumor size (LL/2 cell line; Day 19, mean ± SD): 2551.08 ± 695.31 (9) mm^3
- Tumor size (LL/2 cell line; Day 21, mean ± SD): 4236.33 ± 1060.18 (9)**^,## mm^3
- Tumor size (CT26 cells [3]; Day 0, mean ± SD): 61.67 ± 12.58 mm^3
- Tumor size (CT26 cells [3]; Day 5, mean ± SD): 261.76 ± 61.86 mm^3
- Tumor size (CT26 cells [3]; Day 7, mean ± SD): 354.05 ± 104.90 mm^3
- Tumor size (CT26 cells [3]; Day 9, mean ± SD): 442.98 ± 148.70 mm^3
- Tumor size (CT26 cells [3]; Day 12, mean ± SD): 529.85 ± 206.76 mm^3
- Tumor size (CT26 cells [3]; Day 14, mean ± SD): 671.72 ± 303.14* mm^3
- Tumor size (CT26 cells [3]; Day 16, mean ± SD): 970.72 ± 475.99** mm^3
- Tumor size (CT26 cells [3]; Day 19, mean ± SD): 1129.12 ± 639.16**** mm^3
- Tumor size (CT26 cells [3]; Day 21, mean ± SD): 1710.57 ± 1133.79**** mm^3

Compound: Keytruda: Keytruda (Pembrolizumab, MSD), an anti-PD-1 antibody [reference compound]
- tumor growth (MDA-MB-231 cells; GI101 6 mg/kg, Keytruda 5 mg/kg, 4 administrations, compared with the control (hIgG4)): tumor growth inhibition
- number of mice with tumor growth inhibition rate of 30% or more (MDA-MB-231 cells; [6]): 7 mice
- number of mice with tumor growth inhibition rate of 50% or more (MDA-MB-231 cells; [6]): 5 mice
- number of mice with tumor growth inhibition rate of 80% or more (MDA-MB-231 cells; [6]): 3 mice

Compound: GI101C2: comparative fusion protein: Fc domain, linker, IL-2 variant (2M) (R38A, F42A); SEQ ID NO: 19
- proportion of CD8+ T cells [2]: significant increase
- proliferation of CD4+/FoxP3+ Treg cells [2]: significant increase

Compound: CC(=O)O[C@H]1C(=O)[C@@]2(C)[C@H]([C@H](OC(=O)c3ccccc3)[C@]3(O)C[C@H](OC(=O)[C@H](O)[C@@H](NC(=O)c4ccccc4)c4ccccc4)C(C)=C1C3(C)C)[C@]1(OC(C)=O)CO[C@@H]1C[C@@H]2O [Paclitaxel, reference compound]
- number of mice with tumor growth inhibition rate of 30% or more (EMT6 cells; EMT6, 10 animals per group): 7 mice
- number of mice with tumor growth inhibition rate of 50% or more (EMT6 cells; EMT6, 10 animals per group): 4 mice
- number of mice with tumor growth inhibition rate of 80% or more (EMT6 cells; EMT6, 10 animals per group): 2 mice
- tumor size vs control (EMT6 cells; day 13, mGI-101 3 mg/kg i.v. QW, Paclitaxel 10 mg/kg i.p. 7 consecutive days): statistically significantly lower

Compound: Cc1cccc(-c2nn3c(c2-c2ccnc4ccc(C(N)=O)cc24)CCC3)n1 [Galunisertib, reference compound]
- Tumor size ([4]; Day 0): 61.98 ± 12.23 mm^3
- Tumor growth inhibition ([4]; Day 2): 15.60 ± 38.26%
- Tumor size ([4]; Day 2): 187.20 ± 55.14 mm^3
- Tumor growth inhibition ([4]; Day 4): 34.09 ± 27.14%
- Tumor size ([4]; Day 4): 260.69 ± 78.70 mm^3
- Tumor growth inhibition ([4]; Day 7): 21.12 ± 34.98%
- Tumor size ([4]; Day 7): 398.78 ± 146.30 mm^3
